Reference: PubChem BioAssay (NCI)
Where “and” joins values, the source holds several entries; their conditions need not be identical. Identical values can stand only once.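 Results reflect a 48-hour exposure of cells in 96-well plates to compound at five concentrations. GI50 marks 50% less growth. TGI: total growth inhibition.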

Key:
Assay in all cases: NCI-60 cell line screen, 48 h
[1] = system: RXF 393 renal
[2] = system: CCRF-CEM leukemia
[3] = system: UACC-257 melanoma
[4] = system: K-562 leukemia
[5] = system: A498 renal
[6] = system: HCT-116 colon
[7] = system: IGROV1 ovarian
[8] = system: ACHN renal
[9] = system: NCI-H522 lung
[10] = system: PC-3 prostate

For `Cn1cc(-c2ccc3c(c2)ncn3-c2cc(NS(=O)(=O)C3CC3)cc(-c3ccc(F)cc3F)c2)cn1`, the GI50 [1] was 1.53 µM, the TGI [1] was 8.17 µM and the GI50 [2] was 7.5 µM. For the same molecule, the TGI [2] was greater than 100 µM, the GI50 [3] was 27.5 µM and the TGI [3] was greater than 100 µM. For the same molecule, the GI50 [4] was 4.31 µM, the TGI [4] was 72.1 µM and the GI50 [5] was 0.074 µM. It also gave a TGI [5] of 0.542 µM, a GI50 [6] of 5.39 µM and a TGI [6] of 55.8 µM. The GI50 [7] was 3.49 µM, the TGI [7] was 61.9 µM and the GI50 [8] was 5 µM. The TGI [8] was 66.9 µM, the GI50 [9] was 10.6 µM and the TGI [9] was 64.9 µM. It also gave a GI50 [10] of 5.97 µM and a TGI [10] greater than 100 µM.
For `CN(c1ccccc1)c1c2ccccc2nc2[nH]c3ccccc3c12`, the GI50 [1] was 2.11 µM, the TGI [1] was 38.7 µM and the GI50 [2] was 1.27 µM. It also gave a TGI [2] greater than 100 µM, a GI50 [3] of 6.54 µM and a TGI [3] of 21.4 µM. It also gave a GI50 [4] of 2.41 µM, a TGI [4] greater than 56.8 µM and a GI50 [5] of 2.04 µM. For the same molecule, the TGI [5] was 5.32 µM, the GI50 [6] was 2.89 µM and the TGI [6] was 8.72 µM. It also gave a GI50 [7] of 1.79 µM, a GI50 [8] of 1.43 µM and a TGI [8] of 3.2 µM. The GI50 [9] was 3.56 µM, the TGI [9] was 14.9 µM and the GI50 [10] was 2.78 µM. The TGI [10] was 14.7 µM.
Work on `Cc1ccc(-c2nc([P+](c3ccccc3)(c3ccccc3)c3ccccc3)c(N3CCOCC3)o2)cc1` yielded a GI50 [1] of 0.706 µM, a TGI [1] of 4.25 µM and a GI50 [2] of 0.588 µM. The TGI [2] was 11.3 µM, the GI50 [3] was 0.341 µM and the TGI [3] was 3.42 µM. The GI50 [4] was 0.331 µM, the TGI [4] was 4.87 µM and the GI50 [5] was 0.881 µM. It also gave a TGI [5] of 4.5 µM, a GI50 [6] of 0.356 µM and a TGI [6] of 10.8 µM. For the same molecule, the GI50 [7] was 0.419 µM, the TGI [7] was 4.11 µM and the GI50 [8] was 2.32 µM. It also gave a TGI [8] of 7.53 µM, a GI50 [9] of 0.371 µM and a TGI [9] of 7.39 µM. It also gave a GI50 [10] of 0.315 µM and a TGI [10] of 3.72 µM.
Work on `O=S(=O)(O)C(c1ccccc1)C(O)c1ccccc1` (centres undefined) yielded a TGI [1] greater than 100 µM, a TGI [2] greater than 100 µM and a TGI [3] greater than 100 µM. The TGI [4] was greater than 100 µM, the TGI [5] was greater than 100 µM and the TGI [6] was greater than 100 µM. The TGI [7] was greater than 100 µM, the TGI [8] was greater than 100 µM and the TGI [9] was greater than 100 µM. It also gave a TGI [10] greater than 100 µM.
For `CNS(=O)(=O)Nc1nccc(Cc2c(C)c3ccc(Oc4ncccn4)cc3oc2=O)c1F`, the GI50 [1] was 4.99 µM and 3.02 µM, the TGI [1] was greater than 100 µM and the GI50 [2] was greater than 100 µM. For the same molecule, the TGI [2] was greater than 100 µM, the GI50 [3] was 0.0153 µM and 0.0116 µM and the TGI [3] was 0.0866 µM and 0.0784 µM. The GI50 [4] was 2.21 µM and 1.62 µM, the TGI [4] was greater than 100 µM and the GI50 [5] was 0.0424 µM and 0.0459 µM. The TGI [5] was 1.38 µM and 0.531 µM, the GI50 [6] was 0.07 µM and 0.103 µM and the TGI [6] was greater than 100 µM. The GI50 [7] was 0.938 µM and 0.0955 µM, the TGI [7] was greater than 100 µM and the GI50 [8] was 4.92 µM and > 2.21 µM. The TGI [8] was greater than 100 µM, the GI50 [9] was 22.3 µM and > 10 µM and the TGI [9] was greater than 100 µM. For the same molecule, the GI50 [10] was greater than 100 µM and the TGI [10] was greater than 100 µM.
For `Nc1cc(C(F)(F)F)c(-c2nc(N3CCOCC3)nc(N3CCOCC3)n2)cn1`, the GI50 [1] was 0.241 µM, the TGI [1] was 1.07 µM and the GI50 [2] was 2.97 µM. The TGI [2] was greater than 100 µM, the GI50 [3] was 0.293 µM and the TGI [3] was 2.98 µM. It also gave a GI50 [4] of 3.65 µM, a TGI [4] greater than 100 µM and a GI50 [5] of 0.14 µM. The TGI [5] was 0.45 µM, the GI50 [6] was 0.605 µM and the TGI [6] was greater than 100 µM. For the same molecule, the GI50 [7] was 0.0916 µM, the TGI [7] was 0.528 µM and the GI50 [8] was 0.403 µM. The TGI [8] was greater than 100 µM, the GI50 [9] was 0.624 µM and the TGI [9] was greater than 83.9 µM. The GI50 [10] was 0.258 µM and the TGI [10] was greater than 100 µM.
`O=C1[C@H](Cc2ccc(O)cc2)N2C(=O)CCN(C(=O)NCc3ccccc3)[C@H]2CN1Cc1cccc2ccccc12` was tested, and the GI50 [1] was 3.8 µM, the TGI [1] was 14.5 µM and the GI50 [2] was 2.19 µM. The TGI [2] was greater than 53.1 µM, the GI50 [3] was 2.72 µM and the TGI [3] was 23.9 µM. It also gave a GI50 [4] of 2.06 µM, a TGI [4] greater than 100 µM and a GI50 [5] of 1.38 µM. For the same molecule, the TGI [5] was 6.75 µM, the GI50 [6] was 0.916 µM and the TGI [6] was 12.7 µM. The GI50 [7] was 1.42 µM, the TGI [7] was 10.5 µM and the GI50 [8] was 4.73 µM. It also gave a TGI [8] of 57.7 µM, a GI50 [9] of 0.901 µM and a TGI [9] of 12 µM. It also gave a GI50 [10] of 2.54 µM and a TGI [10] of 18.8 µM.
In the case of `O=C(CC1(O)C(=O)Nc2c(Cl)cc(Cl)cc21)c1cccc([N+](=O)[O-])c1` (centres undefined), the TGI [1] is reported as 62.7 µM, the TGI [2] is reported as 48.2 µM and the TGI [3] is reported as 44.8 µM. For the same molecule, the TGI [4] was 70.2 µM, the TGI [5] was 66.8 µM and the TGI [6] was 59 µM. The TGI [7] was 55.8 µM, the TGI [8] was greater than 54.6 µM and the TGI [9] was greater than 100 µM. It also gave a TGI [10] greater than 100 µM.
With `COc1cc(NC(=O)COc2ccccc2)c(C(N)=O)cc1OC` the GI50 [1] was 1.69 µM, the TGI [1] was 9.52 µM and the GI50 [2] was 0.562 µM. It also gave a TGI [2] greater than 100 µM, a GI50 [3] greater than 100 µM and a TGI [3] greater than 100 µM. It also gave a GI50 [4] of 0.31 µM, a TGI [4] greater than 100 µM and a GI50 [5] of 2.77 µM. It also gave a TGI [5] of 15.4 µM, a GI50 [6] of 0.62 µM and a TGI [6] greater than 100 µM. For the same molecule, the GI50 [7] was 4.07 µM, the TGI [7] was greater than 100 µM and the GI50 [8] was 8.12 µM. The TGI [8] was greater than 100 µM, the GI50 [9] was 0.41 µM and the TGI [9] was 7.06 µM. The GI50 [10] was 2.23 µM and the TGI [10] was greater than 100 µM.
